# Columns and labels:
# A549 cells = test: ChemoFx live cell chemoresponse assay on A549 (wash-before-treatment, folic acid supplementation); type: cell-based, human
# Experimental: The ChemoFx™ live cell chemoresponse assay was performed on 65 patient specimens and the cell line A549. The cells were treated with a 10-dose range of pemetrexed for 72 hours before DAPI-nuclear staining and counting. AUC (Area Under Curve) values were calculated and additional statistical analysis was performed on the resulting dose-response curves. Folic Acid supplementation experiments were conducted. Pure folic acid was purchased from Sigma Aldrich, filtered, and prepared in a 100× concentration using RPMI media. The concentrate was added to RPMI media so that the final concentration of folic acid ranged between 1.5 mg/L and 500 mg/L. The cell line A549 was plated and treated according to the ChemoFx™ assay in the RPMI media containing increasing concentrations of folic acid. A control was also plated and treated at the same time. In order to determine whether or not removal of excess folic acid from growth media affected the outcome of the chemoresponse assay, a Wash Before Treatment (WBT) step was included. Briefly, A549 cells were plated in 5% BEGM growth media and were cultured to the desired confluence. The growth media was then aspirated and the cells washed with 70 μL of PBS. After removal of the PBS, 70 μL of 5% RPMI+EGF (EGF concentration of 10 ng/mL) treatment media was added to the each treatment well. Following the addition of the treatment media, 30 μL of the treatment media was removed leaving a total volume of 40 μL of treatment media per well. Pemetrexed was then prepared using serial dilutions in the treatment media and was applied to the treatment wells. All aspirations and additions of media and wash solutions was performed by an automated liquid handler to avoid harsh pipetting that might dissociate/disrupt cells.
# [1] = system: non-small cell lung carcinoma (NSCLC); settings: second-line treatment in the clinical setting, NSCLC patients (Hanna 2004); cited from earlier work
# [2] = system: primary cultures of NSCLC specimens; test: ChemoFx live cell chemoresponse assay on primary cultures of patient lung cancer specimens; type: cell-based, human; settings: 65 primary cultures, single agent, 72 hours
# Experimental: The ChemoFx™ live cell chemoresponse assay was performed on 65 patient specimens and the cell line A549. The cells were treated with a 10-dose range of pemetrexed for 72 hours before DAPI-nuclear staining and counting. AUC (Area Under Curve) values were calculated and additional statistical analysis was performed on the resulting dose-response curves.
# The area under the dose-response curve (AUC) represents the survival fraction of cells in the presence of drug at each of the 10 increasing dose concentrations. There can be certain circumstances when dose-response curves of differing shapes share similar AUCs. Therefore, as a better reflection of sensitivity to drug treatment, an adjusted area under the curve (aAUC) was calculated according to the following formulas. First, local slope (Sd) at each dose point was calculated based on Sd=(CId-1−CId)/unit of dose. Second, slope weight (Wd) at each dose point was calculated based on Wd=1−Sd. Finally, aAUC was computed based on aAUC=Σ Wd CId, where d=1 . . . 10. Mi Z, et al. (2008) Anticancer Res 28: 1733-1740.
# Adjusted areas under the curve (aAUC) were calculated for each dose-response curve. The assay results were classified as responsive (R; assay score≦5.34648.0), intermediate responsive (IR; assay score 5.3465-6.5372) or non-responsive (NR; assay score≧6.5373).
structure (smiles),measurement,setting,value
"Nc1nc2[nH]cc(CCc3ccc(C(=O)N[C@@H](CCC(=O)O)C(=O)O)cc3)c2c(=O)[nH]1 [pemetrexed, Pemetrexed]",effect of folic acid on observed activity,"A549 cells; A549, RPMI media with folic acid 1.5 mg/L to 500 mg/L, FIG. 3",could be reversed with folic acid treatment
same,effect of wash-before-treatment (WBT) protocol on in vitro response,"A549 cells; A549, with WBT, 5% BEGM to 5% RPMI+EGF, FIG. 1",significantly improved the in vitro response
same,response curve without WBT,"A549 cells; A549, without WBT (5% BEGM control)",a typical ChemoFx™ response curve was not obtained
same,sensitivity of A549 to treatment,"A549 cells; A549 cultured in 5% BEGM, treated in 5% RPMI+EGF, FIG. 1",good positive control for sensitivity
same,objective response rate (overall population response),[1],9.1%
same,share of primary cultures with intermediate response (IR),"[2]; 2.24 nM to 586 μM, aAUC assay score 5.3465-6.5372",9.2%
same,share of primary cultures non-responsive (NR),"[2]; 2.24 nM to 586 μM, aAUC assay score ≧6.5373",84.6%
same,"share of primary cultures that responded (responsive, R)","[2]; ten serial dilutions 2.24 nM to 586 μM, aAUC assay score ≦5.34648.0",6.2%
